Assay results taken from US6756377B2, “Compounds and their use” (Biovitrum AB, priority 2000, dated 2004).
Where two headings read alike, the source gives them in different places.

Assays:
[1] = target: T1, human 5-HT2c receptor protein (Homo sapiens, UniProt P28335); assay: 5-HT2c receptor affinity assay (displacement of 3H-labelled 5-HT, Scintillation Proximity Assay); conditions: membranes of transfected HEK293 cells; 3H-5-HT displacement; non-specific binding 5 μM mianserin
T1 construct: expressed in transfected cells; host or cells: HEK293 (membranes)
T1 sequence (P28335 33-458): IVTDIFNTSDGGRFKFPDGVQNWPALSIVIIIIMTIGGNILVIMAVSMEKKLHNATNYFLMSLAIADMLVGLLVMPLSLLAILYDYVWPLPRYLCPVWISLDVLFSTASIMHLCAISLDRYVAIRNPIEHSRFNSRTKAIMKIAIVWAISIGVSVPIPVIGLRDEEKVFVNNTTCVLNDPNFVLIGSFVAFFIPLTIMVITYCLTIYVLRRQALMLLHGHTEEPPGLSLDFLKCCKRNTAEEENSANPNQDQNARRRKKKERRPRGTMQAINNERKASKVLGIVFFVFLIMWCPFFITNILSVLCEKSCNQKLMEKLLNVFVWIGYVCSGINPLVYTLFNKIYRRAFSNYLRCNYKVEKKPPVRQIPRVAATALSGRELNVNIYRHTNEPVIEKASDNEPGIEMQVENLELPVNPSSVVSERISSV
Description: The 5-HT2c receptor affinity of compounds in the Examples was determined in competition experiments, where the ability of each compound in serial dilution to displace ^3H-labelled 5-HT, bound to membranes prepared from a transfected HEK293 cell line stably expressing the human 5-HT2c receptor protein, was monitored by Scintillation Proximity Assay technology. Non-specific binding was defined using 5 μM mianserin. Typically, the 5HT2c receptor affinity values (Ki, nM) were in the range of 1 nM to 1500 nM, preferably 1 nM to 100 nM.

[2] = cited from earlier work
5-HT2c receptor [3] = conditions: mice expressing the mutated inactive form of the 5-HT2c receptor; cited from earlier work
5-HT2c receptor [4] = target: T2, 5-HT2c receptor (Mus musculus, UniProt P34968); conditions: mice that express the normal 5-HT2c receptor; cited from earlier work
T2 construct: mice that express the normal 5-HT2c receptor; host or cells: mice (in vivo)
T2 sequence (P34968 33-459): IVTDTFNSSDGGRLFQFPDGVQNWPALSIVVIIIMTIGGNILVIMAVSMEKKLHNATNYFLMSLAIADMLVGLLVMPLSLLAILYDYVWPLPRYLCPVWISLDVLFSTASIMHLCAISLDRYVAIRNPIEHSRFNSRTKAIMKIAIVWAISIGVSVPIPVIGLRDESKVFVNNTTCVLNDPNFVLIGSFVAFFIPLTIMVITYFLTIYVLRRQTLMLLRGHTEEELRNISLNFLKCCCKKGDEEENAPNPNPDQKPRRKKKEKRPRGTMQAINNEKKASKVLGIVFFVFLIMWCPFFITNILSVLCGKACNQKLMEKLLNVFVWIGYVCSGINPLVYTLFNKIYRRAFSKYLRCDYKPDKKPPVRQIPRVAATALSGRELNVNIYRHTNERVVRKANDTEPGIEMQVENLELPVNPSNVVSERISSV

Row | SMILES | Ki [1] [nM] | body weight ([2]; controlled clinical studies) | further results
1 | c1cc(CN2CCOCC2)cc(OCCOc2nccnc2N2CCNCC2)c1 [Example 1, 2-(1-Piperazinyl)-3-{2-[3-(4-morpholinylmethyl)phenoxy]ethoxy}pyrazine] | 18 | – | –
2 | CC(C)NCc1cccc(OCCOc2nccnc2N2CCNCC2)c1 [Example 5, 2-(1-Piperazinyl)-3-{2-[3-{(isopropylamino)methyl}phenoxy]ethoxy}pyrazine] | 3 | – | –
3 | CCN[C@@H](C)Cc1cccc(C(F)(F)F)c1 [dexfenflurarnine] | – | weight reduction | –
4 | CNCCC(Oc1ccc(C(F)(F)F)cc1)c1ccccc1 (stereo not shown) [fluoxetine] | – | weight reduction | –
5 | Clc1cccc(N2CCNCC2)c1 [mCPP, m-chlorophenylpiperazine] | – | – | food intake (5-HT2c receptor [3]): lacks activity; food intake (5-HT2c receptor [4]): reduces food intake; body weight ([2]; obese subjects, after 2 weeks of treatment): slight but sustained reduction in body weight
